Experiments:
MAGE-A3111-125 peptide [1] = target: T1, MAGE-A3111-125 peptide (Homo sapiens, UniProt P43357); experiment: Peptide-magnetic bead binding assay with elution and PCR amplification (FIG. 1); conditions: peptide on streptavidin-coupled magnetic beads
From the text: FIG. 1 is a photograph illustrating the PCR results of the binding affinity and specificity between Ap52 of Example 2 and specified peptides, in which peptide MAGE-A3111-125 (+), NY-ESO-1119-143 (N1), NY-ESO-1157-170 (N2), NY-ESO-187-111 (N3), or no peptide (−) were reacted with Ap52, followed by elution and PCR amplification; PB served as a control of oligonucleotide aptamer;
A total of ninety-four different sequences were obtained and further assayed individually for its binding affinity and specificity to MAGE-A3111-125. Plasmid DNA was first amplified by use of anchored PCR, as described above. The resulting ssDNA products were purified through 12% denaturing PAGE and incubated with the biotinylated peptide MAGE-A3111-125, which was pre-incubated with the streptavidin-coupled magnetic beads and thus formed a peptide-magnetic bead complex through the streptavidin-biotin interaction. The sequences that bound specifically to the peptide MAGE-A3111-125 were isolated by the magnet and subject to further purification, as the procedure described in library selection.
Thus, Ap52 is highly specific in terms of binding with MAGE-A3111-125 peptide.

MAGE-A3111-125 peptide [2] = target: T1, MAGE-A3111-125 peptide; experiment: Isothermal titration calorimetry (ITC) for dissociation constant (Kd) determination; assay type: binding
Procedure: Isothermal Titration Calorimetry (ITC) for Dissociation Constant (Kd) Determination
Thermodynamic profile of the interaction between DNA and peptide was measured with a MicroCal iTC200 (GE Healthcare Life Sciences) at 25° C. in washing buffer (0.45% glucose, 5 mM MgCl2, in Dulbecco's Phosphate-Buffered Saline). The unmodified MAGE-A3111-125 peptide (0.3 mM, 200 μl) was titrated with 18 successive injections of 2 μl aptamer (0.1 mM) at 150 s intervals. The data were analyzed using MicroCal Origin 7 and fit with a one-set-of sites binding model to obtain values of enthalpy change (AH) and association constant (Ka).
Isothermal titration calorimetry (ITC) is a technique used to measure the thermodynamic profile of the interactions between two molecules, and thus can be used to determine the respective binding affinities of Ap16 and Ap52 to MAGE-A3111-125 peptide. […] Therefore, both Ap52 and Ap16 are effective in targeting MAGE-A3111-125-peptide.

[3] = ITC at 25° C. in washing buffer, one-set-of sites binding model

Row | Substance | binding to MAGE-A3111-125 peptide (MAGE-A3111-125 peptide [1]) | Kd (MAGE-A3111-125 peptide [2]; [3]) [nM] | ΔH (enthalpy change) (MAGE-A3111-125 peptide [2]; [3]) [kcal/mol] | Kd values, in words (MAGE-A3111-125 peptide [2]; general statement on binding to the MAGE-A3 peptide)
1 | Ap16-control: 16-nucleotide region (SEQ ID NO: 7) from another oligonucleotide selected from SELEX, used as a negative control (ATCATTCGGATGTGTG; listed as DNA, chemistry not fully specified) | failed to bind |  |  | 
2 | Ap16: oligonucleotide aptamer of 16 nucleotides AGCACTCAATATTCCC (SEQ ID NO: 1), central randomized region of Ap52 (listed as DNA, chemistry not given here) |  | 95 | -41 | nanomolar range

Source: patent US9976146B2, “Aptamer targeting MAGE-A3 peptide and uses thereof” (Academia Sinica, priority 2014, dated 2018)
